Source: patent US20250263415A1, “TERTIARY AMIDE DERIVATIVES SUBSTITUTED WITH 4-MEMBERED RING STRUCTURE” (Sumitomo Pharma Co., Ltd., priority 2024, published 2025)

Key:
[1] = target: hDAT (Homo sapiens (Human), UniProt Q01959); assay: Dopamine receptor inhibitory activity evaluation (binding assay, CHO-S/hDAT membranes); settings: off-target
Experimental: The binding evaluation assay was outsourced to Eurofins. Specifically, CHO—S/hDAT cells were homogenized in an incubation buffer consisting of 50 mmol/L Tris-HCl, pH 7.4, 100 mmol/L NaCl, 1 μmol/L Leupeptin, and 10 μmol/L PMSF. The membrane pellet obtained by centrifugation was resuspended in the incubation buffer to prepare a membrane preparation. The test compound (1-10 μmol/L DMSO solution), the membrane preparation, and 0.15 nmol/L […] were mixed and incubated at 4° C. for 180 minutes. The cell membrane-[^125I]RTI-55 complex was bound to a GF/B filter mat by vacuum filtration and washed with 50 mmol/L Tris-HCl, pH 7.4. The effect on the receptor was assessed by measuring radioactivity using a scintillation counter.

[2] = target: hSERT (Homo sapiens (Human), UniProt P31645); assay: Serotonin receptor inhibitory activity evaluation (binding assay, HEK293/hSERT membranes); settings: off-target
hSERT, sequence (P31645 whole entry): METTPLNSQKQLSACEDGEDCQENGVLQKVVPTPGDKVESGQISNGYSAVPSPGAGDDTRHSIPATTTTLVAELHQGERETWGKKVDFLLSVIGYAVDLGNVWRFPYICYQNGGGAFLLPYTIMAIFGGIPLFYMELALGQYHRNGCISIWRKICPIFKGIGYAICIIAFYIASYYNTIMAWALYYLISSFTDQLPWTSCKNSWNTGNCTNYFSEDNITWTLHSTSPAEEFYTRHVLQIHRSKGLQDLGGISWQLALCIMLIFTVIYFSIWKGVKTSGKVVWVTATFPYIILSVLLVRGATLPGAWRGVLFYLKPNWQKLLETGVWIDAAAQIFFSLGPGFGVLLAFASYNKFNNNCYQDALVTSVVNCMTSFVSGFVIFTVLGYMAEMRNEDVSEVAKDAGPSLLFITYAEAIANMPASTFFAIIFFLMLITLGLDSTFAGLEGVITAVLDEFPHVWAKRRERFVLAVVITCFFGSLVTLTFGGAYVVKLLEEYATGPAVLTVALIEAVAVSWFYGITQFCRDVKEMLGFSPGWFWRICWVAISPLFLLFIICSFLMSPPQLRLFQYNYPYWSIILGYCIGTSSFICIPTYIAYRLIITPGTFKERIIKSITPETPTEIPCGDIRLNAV
Experimental: The binding evaluation assay was outsourced to Eurofins. Specifically, HEK293/hSERT cells were homogenized in a buffer consisting of 100 mmol/L NaCl, 1 μmol/L Leupeptin, 10 μmol/L PMSF, and 50 mmol/L Tris-HCl (pH7.4). The membrane pellet obtained by centrifugation was resuspended in an incubation buffer consisting of 50 mmol/L Tris-HCl (pH 7.4), 120 mmol/L NaCl, and 5 mmol/L KCl to prepare a membrane preparation. The test compound (1-10 μmol/L DMSO solution), the membrane preparation, and 0.4 nmol/L [^3H]Paroxetin were mixed and incubated at 25° C. for 60 minutes. The cell membrane-[^3H]Paroxetin complex was bound to a GF/B filter mat by vacuum filtration and washed with 50 mmol/L Tris-HCl (pH 7.4). The effect on the receptor was assessed by measuring radioactivity using a scintillation counter.

[3] = system: G-401 xenograft; assay: Drug efficacy evaluation by intravenous administration using G-401 xenograft mice model; format: in vivo; settings: G-401 xenograft model
Experimental: G-401 cells (ATCC) were intradermally transplanted into 4-7-week-old BALB/cAnNCrj-nu/nu mice (CAnN.Cg-Foxnl/CrlCrlj, Jackson Laboratory Japan) at 5×10^5 cells/mouse. After confirming the engraftment of G-401 cells 10-40 days after transplantation, the test compound suspended in a solvent such as 10 mmol/L glycine buffer solution (pH 2.0) was administered via the tail vein at least once a week at a dose of 0.015-20 mg/kg. The tumor volume was measured over time from the start of administration, and the effect of tumor volume reduction by administration of the test compound was evaluated. The tumor volume can be calculated from the following equation using the minor axis and major axis of the tumor measured with an electronic caliper (Mitutoyo).
A control administration group administered with only a solvent such as 10 mmol/L glycine buffer solution (pH 2.0) and a test compound administration group were compared, and the antitumor effect was evaluated by calculating T/C from the following equation.

[4] = Solubility test; format: physicochemical; settings: pH 2.0 and pH 3.0 buffers
Experimental: The solubility was measured for Examples 7, 10, 20, 23, 24, and 30 to 34, Comparative Example 1, and Comparative Example 2. The test compound was added to 10 mmol/L glycine buffer (pH 2.0) and 10 mmol/L citrate buffer (pH 3.0), and the mixture was stored in a thermostatic chamber at 5° C. After standing overnight, the mixture was filtered through a membrane filter, and the concentration of the filtrate was measured by HPLC.
The HPLC measurement conditions are as follows.
HPLC conditions • Column: Acquity UPLC BEH C18, 1.7 μm, 50×2.1 mm • Column temperature: 40° C. • Mobile phase: A: 0.1% trifluoroacetic acid-containing water • B: acetonitrile • A/B (min): 95/5 (0)→0/100 (3.5)→0/100 (4)→95/5 (4.01)→95/5 (5) • Flow rate: 0.8 mL/min • Detection: UV visible detector, measurement wavelength 254 nm • Injection volume: 5 μL or • Column: Acquity UPLC BEH C18, 1.7 μm, 50×2.1 mm • Column temperature: 40° C. • Mobile phase: A: 0.1% trifluoroacetic acid-containing water • B: acetonitrile • A/B (min): • 80/20 (0)→40/60 (3.0)→0/100 (3.5)→0/100 (4)→80/20 (4.01)→80/20 (5) • Flow rate: 0.8 mL/min • Detection: UV visible detector, measurement wavelength 254 nm • Injection volume: 2 μL or • Column: Acquity UPLC BEH C18, 1.7 μm, 50×2.1 mm • Column temperature: 40° C. • Mobile phase: A: 0.1% trifluoroacetic acid-containing water • B: acetonitrile • A/B (min): • 80/20 (0)→40/60 (3.0)→0/100 (3.5)→0/100 (4)→100/0 (4.01)→100/0 (5) • Flow rate: 0.8 mL/min • Detection: UV visible detector, measurement wavelength 254 nm • Injection volume: 3 μL

[5] = system: G-401 xenograft; assay: Drug efficacy evaluation by oral administration using G-401 xenograft model mice; format: in vivo
Experimental: G-401 cells (ATCC) were intradermally transplanted into 4-7-week-old BALB/cAnNCrj-nu/nu mice (CAnN.Cg-Foxnl/CrlCrlj, Jackson Laboratory Japan) at 5×10^5 cells/mouse. After confirming the engraftment of G-401 cells 10-40 days after transplantation, the test compound suspended in a solvent such as 0.5% methylcellulose solution was orally administered twice a day at a dose of 1-100 mg/kg. The tumor volume was measured over time from the start of administration, and the effect of tumor volume reduction by administration of the test compound was evaluated. The tumor volume can be calculated from the following equation using the minor axis and major axis of the tumor measured with an electronic caliper (Mitutoyo).
A control administration group administered with only a solvent such as 0.5% methylcellulose solution and a test compound administration group were compared, and the antitumor effect was evaluated by calculating T/C from the following equation.

[6] = Pharmacokinetic study in mice; format: in vivo
Experimental: The test compound was administered to 7-week-old female BALE/c (BALB/cAnN CrlCrlj) mice intravenously (dosage: 1 mg/kg) in a 50% PEG solution (0.01 mol/L HCl) or orally (dosage: 10 mg/kg) in a 0.5% methylcellulose aqueous solution, and blood was collected at the following times: • Intravenous administration: 5 min, 15 min, 30 min, 1 hr, 2 hr, 4 hr, 6 hr, and 24 hr after administration • Oral administration: 15 min, 30 min, 1 hr, 2 hr, 4 hr, 6 hr, and 24 hr after administration
The collected blood was centrifuged at 3000 rpm×10 min using a refrigerated centrifuge set at 4° C., and the obtained plasma was measured by LC-MS. A calibration curve was prepared from the value (peak ratio) obtained by dividing the peak area of the test substance by the peak area of the internal standard substance in MS and the concentration of the plasma calibration curve sample. The concentration in the sample was calculated from the peak ratio and the calibration curve of each sample.

[7] = target: recombinant p300 (Homo sapiens (Human), UniProt Q09472); assay: HAT activity inhibition experiment (SensoLyte HAT(p300) Assay Kit); format: biochemical
recombinant p300, sequence (Q09472 whole entry): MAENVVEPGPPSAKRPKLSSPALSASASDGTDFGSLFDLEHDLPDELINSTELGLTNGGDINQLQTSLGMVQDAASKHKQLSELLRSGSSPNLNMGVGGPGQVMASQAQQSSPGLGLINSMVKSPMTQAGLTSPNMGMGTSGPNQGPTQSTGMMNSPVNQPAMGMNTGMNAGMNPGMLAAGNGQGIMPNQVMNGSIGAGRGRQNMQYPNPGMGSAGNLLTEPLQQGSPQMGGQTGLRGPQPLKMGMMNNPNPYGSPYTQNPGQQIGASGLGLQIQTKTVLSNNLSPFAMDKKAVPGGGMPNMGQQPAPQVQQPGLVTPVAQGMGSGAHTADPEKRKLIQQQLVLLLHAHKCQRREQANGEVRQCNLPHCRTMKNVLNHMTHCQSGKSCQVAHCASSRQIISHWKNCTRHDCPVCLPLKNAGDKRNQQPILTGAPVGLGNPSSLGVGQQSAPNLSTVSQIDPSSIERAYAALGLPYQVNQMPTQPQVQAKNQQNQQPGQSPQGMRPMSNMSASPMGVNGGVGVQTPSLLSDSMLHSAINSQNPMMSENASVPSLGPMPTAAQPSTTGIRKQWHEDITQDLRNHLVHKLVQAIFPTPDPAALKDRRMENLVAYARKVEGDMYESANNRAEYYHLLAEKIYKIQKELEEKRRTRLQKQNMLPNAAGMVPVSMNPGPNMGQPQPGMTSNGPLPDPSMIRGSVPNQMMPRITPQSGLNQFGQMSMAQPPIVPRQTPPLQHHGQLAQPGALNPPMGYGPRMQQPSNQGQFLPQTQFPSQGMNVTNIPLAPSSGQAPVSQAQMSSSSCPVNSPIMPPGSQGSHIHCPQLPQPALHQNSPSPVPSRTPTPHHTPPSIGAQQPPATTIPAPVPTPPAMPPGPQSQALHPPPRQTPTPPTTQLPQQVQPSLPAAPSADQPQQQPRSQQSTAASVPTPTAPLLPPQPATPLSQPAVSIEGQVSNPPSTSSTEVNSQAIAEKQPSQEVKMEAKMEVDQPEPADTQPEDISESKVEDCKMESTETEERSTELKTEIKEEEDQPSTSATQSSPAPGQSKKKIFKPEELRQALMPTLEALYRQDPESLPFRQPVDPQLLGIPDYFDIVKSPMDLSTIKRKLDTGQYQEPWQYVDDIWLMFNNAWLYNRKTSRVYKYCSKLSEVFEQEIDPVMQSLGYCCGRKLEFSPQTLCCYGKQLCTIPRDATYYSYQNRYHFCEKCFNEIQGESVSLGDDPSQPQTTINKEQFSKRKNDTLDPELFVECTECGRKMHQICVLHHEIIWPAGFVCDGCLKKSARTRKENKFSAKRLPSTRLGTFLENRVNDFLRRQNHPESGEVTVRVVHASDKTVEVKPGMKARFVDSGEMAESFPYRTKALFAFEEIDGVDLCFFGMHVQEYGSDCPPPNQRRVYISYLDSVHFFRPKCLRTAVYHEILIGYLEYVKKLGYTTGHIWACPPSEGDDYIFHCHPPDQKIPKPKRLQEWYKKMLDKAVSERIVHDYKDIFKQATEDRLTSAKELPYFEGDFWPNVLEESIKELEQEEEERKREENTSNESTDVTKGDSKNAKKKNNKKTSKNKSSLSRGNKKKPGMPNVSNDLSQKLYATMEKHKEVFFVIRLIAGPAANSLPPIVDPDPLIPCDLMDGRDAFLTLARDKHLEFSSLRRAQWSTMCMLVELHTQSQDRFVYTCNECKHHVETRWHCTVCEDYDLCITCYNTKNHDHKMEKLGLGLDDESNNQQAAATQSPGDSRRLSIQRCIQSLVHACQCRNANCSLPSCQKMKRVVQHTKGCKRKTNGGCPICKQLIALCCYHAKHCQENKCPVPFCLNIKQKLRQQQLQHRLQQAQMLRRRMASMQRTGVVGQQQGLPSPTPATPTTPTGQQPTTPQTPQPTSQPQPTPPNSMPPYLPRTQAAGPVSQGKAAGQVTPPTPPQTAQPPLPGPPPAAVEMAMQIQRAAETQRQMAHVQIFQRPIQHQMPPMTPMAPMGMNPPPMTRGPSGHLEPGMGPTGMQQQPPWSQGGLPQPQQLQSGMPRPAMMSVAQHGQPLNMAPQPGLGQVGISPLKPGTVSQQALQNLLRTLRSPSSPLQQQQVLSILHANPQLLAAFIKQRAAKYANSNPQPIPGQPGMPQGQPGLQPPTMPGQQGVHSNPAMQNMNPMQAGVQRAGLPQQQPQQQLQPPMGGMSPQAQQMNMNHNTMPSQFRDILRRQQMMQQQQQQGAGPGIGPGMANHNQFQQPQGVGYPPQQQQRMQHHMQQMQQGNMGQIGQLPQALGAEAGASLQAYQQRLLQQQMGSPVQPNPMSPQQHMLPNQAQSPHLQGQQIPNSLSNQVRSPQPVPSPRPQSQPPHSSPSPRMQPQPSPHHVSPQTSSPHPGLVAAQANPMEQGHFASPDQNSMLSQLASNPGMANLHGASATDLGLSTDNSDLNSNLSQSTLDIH
Experimental: The HAT activity inhibitory ability of HAT inhibitors was evaluated using SensoLyte HAT(p300) Assay Kit (ANASPEC, AS-72172). Specifically, 7.5 μL of the compound of Examples […] diluted with assay buffer was added to 7.5 μL of recombinant p300 solution diluted 10 times with assay buffer, and the mixture was incubated at room temperature for 10 minutes. 7.5 μL of acetyl CoA solution diluted 10 times with assay buffer and 15 μL of histone H3 peptide diluted 10 times with assay buffer were added thereto, and the mixture was incubated at 37° C. for 30 minutes. 37.5 μL of Stop Solution was added to stop the reaction. 75 μL of p300 Developer solution diluted 50 times with assay buffer was added, and the mixture was incubated at room temperature for 30 minutes under light-shielded conditions. The fluorescence at 513 nm when irradiated with 389 nm excitation light was measured using a multiplate reader.

[8] = system: G-401 cells; assay: Cell proliferation inhibition experiment using G-401 cells; format: cell-based
Experimental: G-401 cells (derived from malignant rhabdoid tumor) were obtained from the American Type Culture Collection (ATCC). G-401 cells were cultured in McCoy's 5A medium containing 10% fetal bovine serum and 1% penicillin/streptomycin under conditions of 37° C. and 5% CO2.
500 cells per well were seeded in a 384-well plate. One day after seeding, Examples 1 to 35 were added so that the final concentration of DMSO was 0.1%, and the cells were cultured for 3 days. After the culture was completed, the cell viability was measured using CellTiter-Glo Luminescent Cell Viability Assay (Promega, G7570).

hDAT, sequence (Q01959 whole entry): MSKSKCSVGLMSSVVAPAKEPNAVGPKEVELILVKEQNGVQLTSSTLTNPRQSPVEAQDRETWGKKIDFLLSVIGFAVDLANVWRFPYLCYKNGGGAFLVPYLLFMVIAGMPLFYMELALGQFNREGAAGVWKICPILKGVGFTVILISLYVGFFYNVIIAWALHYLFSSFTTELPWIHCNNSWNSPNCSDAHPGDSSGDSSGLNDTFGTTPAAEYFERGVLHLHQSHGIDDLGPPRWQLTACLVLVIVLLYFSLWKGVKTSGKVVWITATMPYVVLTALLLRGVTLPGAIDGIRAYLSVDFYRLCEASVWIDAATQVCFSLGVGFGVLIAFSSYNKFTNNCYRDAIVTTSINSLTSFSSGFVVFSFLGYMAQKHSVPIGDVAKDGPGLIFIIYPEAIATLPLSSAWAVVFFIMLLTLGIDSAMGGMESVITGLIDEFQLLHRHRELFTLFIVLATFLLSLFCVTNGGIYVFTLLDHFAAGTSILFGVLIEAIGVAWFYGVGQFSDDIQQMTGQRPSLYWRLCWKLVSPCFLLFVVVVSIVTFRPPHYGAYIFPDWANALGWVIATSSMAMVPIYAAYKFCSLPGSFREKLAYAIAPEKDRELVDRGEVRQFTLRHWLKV

Compound | Inhibitory effect on dopamine receptors (in words) [1] | Inhibitory effect on serotonin receptors (in words) [2] | Antitumor effect, intravenous administration (in words) [3] | Solubility (in words) [4] | Antitumor effect, oral administration (in words) [5] | Pharmacokinetics (in words) [6] | HAT activity inhibition (in words) [7] | Cell proliferation inhibitory effect on G-401 cells (in words) [8]
O=C1N[C@]2(C[C@@H](F)c3cc(-c4cnn(C5CCN(C6COC6)CC5)c4)ccc32)C(=O)N1CC(=O)N(Cc1ccc(F)cn1)C1(C(F)(F)F)COC1 [Example 23, 2-[(1′S,3′R)-3′-fluoro-5′-{1-[1-(oxetan-3-yl)piperidin-4-yl]-1H-pyrazol-4-yl}-2,5-dioxo-2′,3′-dihydrospiro[imidazolidine-4,1′-inden]-1-yl]-N-[(5-fluoropyridin-2-yl)methyl]-N-[3-(trifluoromethyl)oxetan-3-yl]acetamide] | did not show strong inhibitory activity | did not show strong inhibitory activity | strong antitumor effects | high solubility | strong antitumor effects | excellent pharmacokinetics |  | 
CN1CC(N(Cc2ccc(F)cc2)C(=O)CN2C(=O)N[C@]3(C[C@@H](F)c4cc(-c5cn(C)nc5F)ccc43)C2=O)(C(F)(F)F)C1 [Example 17, 2-[(1′S,3′R)-3′-fluoro-5′-(3-fluoro-1-methyl-1H-pyrazol-4-yl)-2,5-dioxo-2′,3′-dihydrospiro[imidazolidine-4,1′-inden]-1-yl]-N-[(4-fluorophenyl)methyl]-N-[1-methyl-3-(trifluoromethyl)azetidin-3-yl]acetamide] |  |  |  |  |  |  | strong inhibition of HAT activity | strong cell proliferation inhibitory effect
CN1CC(N(Cc2ccc(F)cc2)C(=O)CN2C(=O)N[C@]3(C[C@@H](F)c4cc(-c5cnn(C)c5)ccc43)C2=O)(C(F)(F)F)C1 [Example 10, 2-[(1′S,3′R)-3′-fluoro-5′-(1-methyl-1H-pyrazol-4-yl)-2,5-dioxo-2′,3′-dihydrospiro[imidazolidine-4,1′-inden]-1-yl]-N-[(4-fluorophenyl)methyl]-N-[1-methyl-3-(trifluoromethyl)azetidin-3-yl]acetamide] | did not show strong inhibitory activity | did not show strong inhibitory activity | strong antitumor effects | high solubility | strong antitumor effects | excellent pharmacokinetics |  | 
CN1CC(N(Cc2ccc(F)cn2)C(=O)CN2C(=O)N[C@]3(C[C@@H](F)c4cc(-c5cnn(C)c5)ccc43)C2=O)(C(F)(F)F)C1 [Example 20, 2-[(1′S,3′R)-3′-fluoro-5′-(1-methyl-1H-pyrazol-4-yl)-2,5-dioxo-2′,3′-dihydrospiro[imidazolidine-4,1′-inden]-1-yl]-N-[(5-fluoropyridin-2-yl)methyl]-N-[1-methyl-3-(trifluoromethyl)azetidin-3-yl]acetamide] | did not show strong inhibitory activity | did not show strong inhibitory activity | strong antitumor effects | high solubility | strong antitumor effects | excellent pharmacokinetics |  | strong cell proliferation inhibitory effect
CN1CC(N(Cc2ccc(F)cc2)C(=O)CN2C(=O)N[C@]3(C[C@@H](F)c4cc(-c5cnn(C)c5F)ccc43)C2=O)(C(F)(F)F)C1 [Example 15, 2-[(1′S,3′R)-3′-fluoro-5′-(5-fluoro-1-methyl-1H-pyrazol-4-yl)-2,5-dioxo-2′,3′-dihydrospiro[imidazolidine-4,1′-inden]-1-yl]-N-[(4-fluorophenyl)methyl]-N-[1-methyl-3-(trifluoromethyl)azetidin-3-yl]acetamide] |  |  |  |  |  |  | strong inhibition of HAT activity | strong cell proliferation inhibitory effect
